Assay results published in ChEMBL document CHEMBL2046303, “Discovery and Development of Potent LFA-1/ICAM-1 Antagonist SAR 1118 as an Ophthalmic Solution for Treating Dry Eye” (ACS Med Chem Lett, 2012).
The source made the active and inactive calls. The rule behind the calls is not given here.

Tests used:
[1] = Metabolic stability in human liver microsomes assessed as compound remaining after 30 mins; type: ADME, Microsome; conditions: read-out: Stability
Rattus norvegicus = experiment: AUC in Sprague-Dawley rat at 5 mg/kg, iv; type: ADME, organism-based, Plasma; parameters: dose 5 mg/kg, route intravenous; conditions: in vivo
[2] = Half life in Sprague-Dawley rat at 5 mg/kg, iv; type: ADME, organism-based; parameters: dose 5 mg/kg, route intravenous; conditions: in vivo
[3] = target: T1, Intercellular adhesion molecule (ICAM-1), Integrin alpha-L/beta-2 (Homo sapiens, UniProt P05107+P05362+P20701); experiment: Antagonist activity at LFA-1/ICAM-1 in human HuT-78 T-cells assessed as inhibition of cell adhesion after 1 hr by p-nitrophenyl n-acetyl-beta-D-glucosaminide method; type: functional, cell-based, HuT78
T1 sequence (P20701 whole entry): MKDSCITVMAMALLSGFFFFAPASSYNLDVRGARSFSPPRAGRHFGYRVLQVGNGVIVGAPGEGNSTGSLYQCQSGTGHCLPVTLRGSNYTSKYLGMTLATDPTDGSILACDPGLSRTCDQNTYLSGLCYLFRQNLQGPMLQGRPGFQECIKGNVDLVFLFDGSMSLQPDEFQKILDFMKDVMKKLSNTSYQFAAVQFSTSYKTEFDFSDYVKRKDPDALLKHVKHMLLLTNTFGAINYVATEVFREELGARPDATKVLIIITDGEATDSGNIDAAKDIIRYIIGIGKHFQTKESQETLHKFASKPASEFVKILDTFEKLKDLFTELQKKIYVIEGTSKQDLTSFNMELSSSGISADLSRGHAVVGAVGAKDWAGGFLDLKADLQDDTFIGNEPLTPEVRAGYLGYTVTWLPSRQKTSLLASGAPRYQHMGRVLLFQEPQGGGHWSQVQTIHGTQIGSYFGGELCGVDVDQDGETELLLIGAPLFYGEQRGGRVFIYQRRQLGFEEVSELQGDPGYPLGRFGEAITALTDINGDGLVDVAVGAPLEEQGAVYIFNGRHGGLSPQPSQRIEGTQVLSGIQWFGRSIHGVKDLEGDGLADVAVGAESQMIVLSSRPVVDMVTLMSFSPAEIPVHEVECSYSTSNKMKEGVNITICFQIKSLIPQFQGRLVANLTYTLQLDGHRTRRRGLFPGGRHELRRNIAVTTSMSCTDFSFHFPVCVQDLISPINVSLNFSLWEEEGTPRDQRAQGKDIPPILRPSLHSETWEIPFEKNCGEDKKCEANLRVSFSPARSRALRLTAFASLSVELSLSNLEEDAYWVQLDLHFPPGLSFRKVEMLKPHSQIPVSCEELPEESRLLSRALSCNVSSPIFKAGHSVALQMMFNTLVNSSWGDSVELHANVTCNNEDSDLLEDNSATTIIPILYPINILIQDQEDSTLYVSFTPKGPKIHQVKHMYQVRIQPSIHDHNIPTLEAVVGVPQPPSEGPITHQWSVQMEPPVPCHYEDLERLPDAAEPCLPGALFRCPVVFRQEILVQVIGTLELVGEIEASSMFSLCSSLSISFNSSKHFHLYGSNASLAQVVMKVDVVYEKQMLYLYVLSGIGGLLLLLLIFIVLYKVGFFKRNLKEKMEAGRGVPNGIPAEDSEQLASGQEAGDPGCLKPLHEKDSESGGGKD
T1 sequence (P05362 whole entry): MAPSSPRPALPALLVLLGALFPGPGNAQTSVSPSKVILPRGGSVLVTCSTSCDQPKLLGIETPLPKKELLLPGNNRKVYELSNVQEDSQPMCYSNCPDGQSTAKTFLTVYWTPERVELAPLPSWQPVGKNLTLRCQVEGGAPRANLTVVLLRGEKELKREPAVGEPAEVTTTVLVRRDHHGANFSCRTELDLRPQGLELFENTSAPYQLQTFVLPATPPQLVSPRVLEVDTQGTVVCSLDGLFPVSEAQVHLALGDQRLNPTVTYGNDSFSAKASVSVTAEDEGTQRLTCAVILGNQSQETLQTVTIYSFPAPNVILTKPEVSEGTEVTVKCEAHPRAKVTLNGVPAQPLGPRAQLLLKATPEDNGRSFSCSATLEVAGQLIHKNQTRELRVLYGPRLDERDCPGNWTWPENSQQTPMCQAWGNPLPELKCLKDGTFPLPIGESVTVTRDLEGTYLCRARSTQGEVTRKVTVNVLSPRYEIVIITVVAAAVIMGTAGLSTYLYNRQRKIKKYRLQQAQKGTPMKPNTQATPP
T1 sequence (P05107 whole entry): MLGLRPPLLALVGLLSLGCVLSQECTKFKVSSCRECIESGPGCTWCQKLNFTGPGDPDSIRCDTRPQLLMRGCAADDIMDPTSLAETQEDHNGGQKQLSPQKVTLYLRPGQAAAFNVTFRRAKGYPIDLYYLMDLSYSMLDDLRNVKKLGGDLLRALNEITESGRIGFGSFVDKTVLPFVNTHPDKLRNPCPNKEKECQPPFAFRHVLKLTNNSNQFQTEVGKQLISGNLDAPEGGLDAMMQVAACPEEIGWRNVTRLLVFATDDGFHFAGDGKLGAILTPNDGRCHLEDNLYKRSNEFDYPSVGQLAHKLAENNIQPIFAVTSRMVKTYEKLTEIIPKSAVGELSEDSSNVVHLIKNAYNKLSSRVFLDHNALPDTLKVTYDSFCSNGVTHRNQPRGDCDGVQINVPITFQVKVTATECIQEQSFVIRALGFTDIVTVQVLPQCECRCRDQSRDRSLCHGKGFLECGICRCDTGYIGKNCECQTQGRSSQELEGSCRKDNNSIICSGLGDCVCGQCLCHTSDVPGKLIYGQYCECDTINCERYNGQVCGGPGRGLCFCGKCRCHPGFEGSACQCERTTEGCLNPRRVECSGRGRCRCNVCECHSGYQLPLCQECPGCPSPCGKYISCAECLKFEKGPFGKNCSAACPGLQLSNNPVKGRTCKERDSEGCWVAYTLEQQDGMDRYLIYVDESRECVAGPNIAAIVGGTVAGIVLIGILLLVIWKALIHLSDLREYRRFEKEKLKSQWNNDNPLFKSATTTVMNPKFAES

[4] = Metabolic stability in rat liver microsomes assessed as compound remaining after 30 mins; type: ADME, Microsome; conditions: read-out: Stability
[5] = target: T1, Intercellular adhesion molecule (ICAM-1), Integrin alpha-L/beta-2; experiment: Antagonist activity at LFA-1/ICAM-1 in human HuT-78 T-cells assessed as inhibition of cell adhesion after 1 hr by p-nitrophenyl n-acetyl-beta-D-glucosaminide method in presence of 10% human serum; type: functional, cell-based, HuT78
[6] = Clearance in Sprague-Dawley rat at 5 mg/kg, iv; type: ADME, organism-based; parameters: dose 5 mg/kg, route intravenous; conditions: in vivo
[7] = target: Intercellular adhesion molecule 1 (Homo sapiens) (UniProt P05362); experiment: Inhibition of ICAM-1-mediated IL-10 release
Intercellular adhesion molecule 1 (Homo sapiens), sequence (P05362 whole entry): as the sequence (P05362 whole entry) above

[8] = target: Intercellular adhesion molecule 1 (Homo sapiens) (UniProt P05362); experiment: Inhibition of ICAM-1-mediated MIP-1alpha release
[9] = target: Intercellular adhesion molecule 1 (Homo sapiens) (UniProt P05362); experiment: Inhibition of ICAM-1-mediated IL-1beta release
[10] = target: Intercellular adhesion molecule 1 (Homo sapiens) (UniProt P05362); experiment: Inhibition of ICAM-1-mediated IFNgamma release
[11] = target: Intercellular adhesion molecule 1 (Homo sapiens) (UniProt P05362); experiment: Inhibition of ICAM-1-mediated IL-1alpha release
[12] = target: Intercellular adhesion molecule 1 (Homo sapiens) (UniProt P05362); experiment: Inhibition of ICAM-1-mediated IL-6 release
[13] = Drug uptake in dog cornea administered topically as ophthalmic solution after 30 mins; type: ADME, tissue-based, Canis lupus familiaris; conditions: in vivo, topical_or_ocular, 0.5 h
[14] = Drug uptake in dog palpebral conjunctiva administered topically as ophthalmic solution after 30 mins; type: ADME, tissue-based, Canis lupus familiaris; conditions: in vivo, topical_or_ocular, 0.5 h
[15] = Drug uptake in rat palpebral conjunctiva administered topically as ophthalmic solution after 30 mins; type: ADME, tissue-based; conditions: in vivo, topical_or_ocular, 0.5 h
[16] = Drug uptake in rat bulbar conjunctiva administered topically as ophthalmic solution after 30 mins; type: ADME; conditions: in vivo, topical_or_ocular, 0.5 h
[17] = Drug uptake in rat cornea administered topically as ophthalmic solution after 30 mins; type: ADME, tissue-based; conditions: in vivo, topical_or_ocular, 0.5 h
[18] = Drug uptake in dog bulbar conjunctiva administered topically as ophthalmic solution after 30 mins; type: ADME, tissue-based, Canis lupus familiaris; conditions: in vivo, topical_or_ocular, 0.5 h
[19] = Solubility of the compound in phosphate-buffered saline; type: physicochemical
Cytochrome P450 2C9 = Cytochrome P450 2C9 (Homo sapiens, UniProt P11712); experiment: Inhibition of CYP2C9; type: ADME
Cytochrome P450 2C9, sequence (P11712 whole entry): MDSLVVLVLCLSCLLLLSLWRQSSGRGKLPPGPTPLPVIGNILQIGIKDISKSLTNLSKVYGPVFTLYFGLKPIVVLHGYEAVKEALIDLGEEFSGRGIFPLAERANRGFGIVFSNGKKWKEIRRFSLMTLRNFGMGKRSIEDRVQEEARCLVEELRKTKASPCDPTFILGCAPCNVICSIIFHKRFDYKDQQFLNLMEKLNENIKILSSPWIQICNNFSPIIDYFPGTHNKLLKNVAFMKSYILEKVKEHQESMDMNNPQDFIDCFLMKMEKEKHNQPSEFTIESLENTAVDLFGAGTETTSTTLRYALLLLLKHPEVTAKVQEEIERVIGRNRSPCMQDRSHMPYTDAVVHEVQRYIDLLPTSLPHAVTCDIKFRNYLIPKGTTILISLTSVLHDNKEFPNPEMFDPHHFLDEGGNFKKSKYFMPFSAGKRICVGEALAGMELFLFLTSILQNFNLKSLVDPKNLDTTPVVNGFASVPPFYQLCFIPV

Cytochrome P450 3A4 = Cytochrome P450 3A4 (Homo sapiens, UniProt P08684); experiment: Inhibition of CYP3A4; type: ADME
Cytochrome P450 3A4, sequence (P08684 whole entry): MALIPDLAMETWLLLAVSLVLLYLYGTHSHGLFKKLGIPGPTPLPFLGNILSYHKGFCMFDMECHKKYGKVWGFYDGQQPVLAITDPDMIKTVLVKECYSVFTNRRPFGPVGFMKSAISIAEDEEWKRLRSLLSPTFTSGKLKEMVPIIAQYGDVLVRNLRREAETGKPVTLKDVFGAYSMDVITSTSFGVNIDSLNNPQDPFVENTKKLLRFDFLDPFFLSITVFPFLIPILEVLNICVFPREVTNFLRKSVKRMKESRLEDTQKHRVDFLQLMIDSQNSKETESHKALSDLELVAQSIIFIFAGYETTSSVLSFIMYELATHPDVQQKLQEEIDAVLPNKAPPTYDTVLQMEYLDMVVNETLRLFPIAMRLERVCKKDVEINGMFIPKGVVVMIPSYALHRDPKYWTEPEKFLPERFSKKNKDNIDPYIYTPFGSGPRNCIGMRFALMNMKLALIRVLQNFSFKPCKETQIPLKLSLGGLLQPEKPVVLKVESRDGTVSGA

Canis familiaris = experiment: Increase of mean schirmer's tear test in dog administered topically with 1% PBS solution tid for 12 weeks measured after 1 to 12 weeks; type: functional, Canis lupus familiaris
Salmonella typhimurium = experiment: Genotoxicity in Salmonella typhimurium by Ames test; type: toxicity, organism-based; conditions: salmonella enterica subsp. enterica serovar typhimurium

Row | Compound | remaining at 0.5 h [1] [%] | AUC (Rattus norvegicus) [ng·h/mL] | half-life [2] [min] | IC50 [3] [µM] | remaining at 0.5 h [4] [%] | IC50 [5] [µM] | clearance [6] [mL/min/kg] | also measured
1 | CP(C)(=O)c1cccc(C[C@H](NC(=O)c2c(Cl)cc3c(c2Cl)CCN(C(=O)c2ccc4ccoc4c2)C3)C(=O)O)c1 | > 95 | 2260 | 22.2 | 0.058 | > 95 | 0.49 | 37 | –
2 | CC(=O)c1cccc(C[C@H](NC(=O)c2c(Cl)cc3c(c2Cl)CCN(C(=O)c2ccc4ccoc4c2)C3)C(=O)O)c1 | – | – | – | 0.012 | – | 5.6 | – | –
3 | CC(C)S(=O)(=O)c1cccc(C[C@H](NC(=O)c2c(Cl)cc3c(c2Cl)CCN(C(=O)c2ccc4ccoc4c2)C3)C(=O)O)c1 | – | – | – | 0.2 | – | > 10 | – | –
4 | C[C@H](O)c1cccc(C[C@H](NC(=O)c2c(Cl)cc3c(c2Cl)CCN(C(=O)c2ccc4ccoc4c2)C3)C(=O)O)c1 | – | – | – | 0.014 | – | 0.94 | – | –
5 | CS(=O)(=O)c1ccccc1C[C@H](NC(=O)c1c(Cl)cc2c(c1Cl)CCN(C(=O)c1ccc(Cl)cc1)C2)C(=O)O | – | – | – | > 1 | – | – | – | –
6 | CS(=O)(=O)c1cccc(C[C@H](NC(=O)c2c(Cl)cc3c(c2Cl)CCN(C(=O)c2ccc4ccoc4c2)C3)C(=O)O)c1 [listing 1 of 2 here] | – | – | – | – | – | – | – | inhibition [7]: Active; inhibition [8]: Active; inhibition [9]: Active; inhibition [10]: Active; inhibition [11]: Active; inhibition [12]: Active
7 | CC(C)c1cccc(C[C@H](NC(=O)c2c(Cl)cc3c(c2Cl)CCN(C(=O)c2ccc(Cl)cc2)C3)C(=O)O)c1 | – | – | – | 0.01 | – | > 10 | – | –
8 | CS(=O)(=O)c1cccc(C[C@H](N[14C](=O)c2c(Cl)cc3c(c2Cl)CCN(C(=O)c2ccc4ccoc4c2)C3)C(=O)O)c1 | – | – | – | – | – | – | – | Drug uptake [13]: Active; Drug uptake [14]: Active; Drug uptake [15]: Active; Drug uptake [16]: Active; Drug uptake [17]: Active; Drug uptake [18]: Active
9 | CS(=O)(=O)c1ccc(C[C@H](NC(=O)c2c(Cl)cc3c(c2Cl)CCN(C(=O)c2ccc(Cl)cc2)C3)C(=O)O)cc1 | – | – | – | 0.25 | – | – | – | –
10 | C[S+]([O-])c1cncc(CC(NC(=O)c2c(Cl)cc3c(c2Cl)CCN(C(=O)c2ccc4ccoc4c2)C3)C(=O)O)c1 (racemic) | > 95 | 753 | 16.2 | 0.057 | > 95 | 0.05 | 121 | –
11 | C[C@@H](O)c1cccc(C[C@H](NC(=O)c2c(Cl)cc3c(c2Cl)CCN(C(=O)c2ccc4ccoc4c2)C3)C(=O)O)c1 | – | – | – | 0.01 | – | 4 | – | –
12 | CN(C)S(=O)(=O)c1cccc(C[C@H](NC(=O)c2c(Cl)cc3c(c2Cl)CCN(C(=O)c2ccc4ccoc4c2)C3)C(=O)O)c1 | – | – | – | 0.01 | – | > 10 | – | –
13 | CS(=O)(=O)c1ccc(C[C@H](NC(=O)c2c(Cl)cc3c(c2Cl)CCN(C(=O)c2ccc(Cl)cc2)C3)C(=O)O)o1 | 92 | 1130 | 16.2 | 0.006 | > 95 | 0.24 | 74.3 | –
14 | CS(=O)(=O)c1cccc(C[C@H](NC(=O)c2c(Cl)cc3c(c2Cl)CCN(C(=O)c2ccc(Cl)cc2)C3)C(=O)O)c1 | – | – | – | 0.003 | – | 0.2 | – | –
15 | CS(=O)(=O)c1cccc(C[C@H](NC(=O)c2c(Cl)cc3c(c2Cl)CCN(C(=O)c2ccc4ccoc4c2)C3)C(=O)[O-])c1.[Na+] [LIFITEGRAST SODIUM] | – | – | – | – | – | – | – | solubility [19]: ≥ 200 mg/mL

Now from value to molecule, other results behind:

Row | remaining at 0.5 h [1] [%] | AUC (Rattus norvegicus) [ng·h/mL] | half-life [2] [min] | IC50 [3] [µM] | remaining at 0.5 h [4] [%] | IC50 [5] [µM] | clearance [6] [mL/min/kg] | Compound | also measured
16 | – | – | – | 0.002 | – | 0.18 | – | CCS(=O)(=O)c1cccc(C[C@H](NC(=O)c2c(Cl)cc3c(c2Cl)CCN(C(=O)c2ccc4ccoc4c2)C3)C(=O)O)c1 | –
17 | 65 | 1510 | 25.8 | – | > 95 | – | 60 | CS(=O)(=O)c1ccc(C[C@H](NC(=O)c2c(Cl)cc3c(c2Cl)CCN(C(=O)c2ccc4ccoc4c2)C3)C(=O)O)o1 | –
18 | – | – | – | 0.12 | – | 2 | – | CS(=O)(=O)c1cc(C[C@H](NC(=O)c2c(Cl)cc3c(c2Cl)CCN(C(=O)c2ccc4ccoc4c2)C3)C(=O)O)ccc1Cl | –
19 | – | – | – | 0.12 | – | – | – | CS(=O)(=O)c1ccc(Cl)c(C[C@H](NC(=O)c2c(Cl)cc3c(c2Cl)CCN(C(=O)c2ccc4ccoc4c2)C3)C(=O)O)c1 | –
20 | > 95 | 1190 | 39 | 0.01 | > 95 | 0.26 | 80.5 | CS(=O)(=O)c1cc(F)cc(C[C@H](NC(=O)c2c(Cl)cc3c(c2Cl)CCN(C(=O)c2ccc4ccoc4c2)C3)C(=O)O)c1 | –
21 | 71 | 2430 | 61.8 | 0.004 | > 95 | 0.2 | 34.4 | NS(=O)(=O)c1cccc(C[C@H](NC(=O)c2c(Cl)cc3c(c2Cl)CCN(C(=O)c2ccc4ccoc4c2)C3)C(=O)O)c1 | –
22 | – | – | – | 0.01 | – | 0.2 | – | CS(=O)(=O)c1cc(Cl)cc(C[C@H](NC(=O)c2c(Cl)cc3c(c2Cl)CCN(C(=O)c2ccc4ccoc4c2)C3)C(=O)O)c1 | –
23 | – | – | – | 0.013 | – | 0.64 | – | CNS(=O)(=O)c1cccc(C[C@H](NC(=O)c2c(Cl)cc3c(c2Cl)CCN(C(=O)c2ccc4ccoc4c2)C3)C(=O)O)c1 | –
24 | > 95 | 1280 | 37.2 | 0.039 | > 95 | 0.032 | 73.5 | CS(=O)(=O)c1cncc(C[C@H](NC(=O)c2c(Cl)cc3c(c2Cl)CCN(C(=O)c2ccc4ccoc4c2)C3)C(=O)O)c1 | –
25 | – | – | – | 0.8 | – | – | – | CS(=O)(=O)c1cccc(C[C@H](NC(=O)c2c(Cl)cc3c(c2Cl)CCN(C(=O)c2ccc4ccoc4c2)C3)C(=O)O)c1Cl | –
26 | 71 | 705 | 46.8 | 0.009 | > 95 | 0.074 | 139 | CS(=O)(=O)c1cccc(C[C@H](NC(=O)c2c(Cl)cc3c(c2Cl)CCN(C(=O)c2ccc4ccoc4c2)C3)C(=O)O)c1 [listing 2 of 2 here] | IC50 (Cytochrome P450 2C9): 3 µM; IC50 (Cytochrome P450 3A4): > 20 µM; Activity (Canis familiaris): 3.4 mm; Activity (Salmonella typhimurium): Non-toxic
